Holding throughout (type): cell-based
One assay has as its system MCF-7 cells. Kind of assay: Cell anti-proliferation / toxicity assay (CCK-8), MCF-7. Particulars: Homo sapiens, MCF7, 72 h, CCK-8, read-out: EC50 MCF-7. The procedure: Cell anti-proliferation assays were performed to determine the toxicity of these inhibitors. […] These compounds were further evaluated against the control cell line HEK293 to test their toxicity with a non-cancerous cell line.
And then the cells were exposed to the different inhibitors with various concentrations for 72 h. […] EC50s were calculated using GraphPad Prizm statistical package with sigmoidal variable slope dose response curve fit.

The next assay deals with T1, G9a (Homo sapiens, UniProt Q96KQ7).
T1 construct: endogenous in cells; host or cells: MDA-MB-231
T1 sequence (Q96KQ7 1-1210): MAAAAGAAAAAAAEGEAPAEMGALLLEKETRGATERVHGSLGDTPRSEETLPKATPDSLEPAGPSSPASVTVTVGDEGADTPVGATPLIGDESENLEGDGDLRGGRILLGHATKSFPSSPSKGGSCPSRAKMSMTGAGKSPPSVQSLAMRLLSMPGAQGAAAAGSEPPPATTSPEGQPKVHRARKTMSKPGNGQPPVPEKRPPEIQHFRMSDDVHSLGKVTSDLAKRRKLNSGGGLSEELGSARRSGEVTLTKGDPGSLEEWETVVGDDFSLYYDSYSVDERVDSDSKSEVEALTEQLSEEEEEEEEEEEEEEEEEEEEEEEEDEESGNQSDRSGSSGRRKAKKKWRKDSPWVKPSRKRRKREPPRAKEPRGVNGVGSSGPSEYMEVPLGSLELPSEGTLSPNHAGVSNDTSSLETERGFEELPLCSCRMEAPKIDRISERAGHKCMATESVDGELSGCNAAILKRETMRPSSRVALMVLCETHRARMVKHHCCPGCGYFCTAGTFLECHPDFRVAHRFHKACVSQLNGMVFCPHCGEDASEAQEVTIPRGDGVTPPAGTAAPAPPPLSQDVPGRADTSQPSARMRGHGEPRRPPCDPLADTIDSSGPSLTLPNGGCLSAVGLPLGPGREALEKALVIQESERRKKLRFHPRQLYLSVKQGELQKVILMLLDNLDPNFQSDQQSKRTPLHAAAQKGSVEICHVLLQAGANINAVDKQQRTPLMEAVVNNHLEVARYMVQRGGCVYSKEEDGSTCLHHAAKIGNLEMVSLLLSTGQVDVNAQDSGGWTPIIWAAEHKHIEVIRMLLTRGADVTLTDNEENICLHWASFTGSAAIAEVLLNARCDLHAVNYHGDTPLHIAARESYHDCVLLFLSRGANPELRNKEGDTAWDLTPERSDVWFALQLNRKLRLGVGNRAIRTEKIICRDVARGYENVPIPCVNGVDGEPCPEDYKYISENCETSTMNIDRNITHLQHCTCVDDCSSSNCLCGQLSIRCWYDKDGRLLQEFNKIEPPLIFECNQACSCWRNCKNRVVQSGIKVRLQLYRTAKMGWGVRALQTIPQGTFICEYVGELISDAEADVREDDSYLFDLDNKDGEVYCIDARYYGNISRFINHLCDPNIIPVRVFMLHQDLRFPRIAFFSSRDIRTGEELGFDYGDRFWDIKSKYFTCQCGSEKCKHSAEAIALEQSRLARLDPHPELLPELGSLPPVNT
Kind of assay: H3K9Me2 cell immunofluorescence In-Cell Western (ICW) assay in MDA-MB-231. The settings on record: MDA-MB-231 cell line, 48 h exposure. The procedure:
After the incubation, the media was removed and 100 μl fixation and permeabilization solution (2% formaldehyde in PBS) for fixation was added for 30 min. And then use 200 μl 0.1% Triton X100 in PBS washing solution to wash (allow wash to shake on a plate shaker for 5 min). After five washes, cells were blocked for 1 h with 150 μl blocking buffer to each well (1% BSA in PBS) (allow blocking at room temperature with moderate shaking on a plate shaker). After 1 h, remove the blocking buffer from the blocking step and add primary antibody in blocking buffer to cover the bottom of each well. […] The plates were read on an Odyssey CLX (LiCor) scanner at both 800 nm (H3K9me2 signal) and 700 nm (cell tag 700 stain signal) channels. IC50s were calculated using GraphPad Prizm statistical package with sigmoidal variable slope dose response curve fit.

The subject of another assay is MDA-MB-231 cells. Put plainly: Cell anti-proliferation / toxicity assay (CCK-8), MDA-MB-231. Particulars: Homo sapiens, MDA-MB-231, 72 h, CCK-8, read-out: EC50 MDA-MB-231. Here is the method:
Initial tests designed around assessing whether a synergistic effect would be observed in real when a combination of G9a inhibitor and HDAC inhibitor used in conjunction.
Cell anti-proliferation assays were performed to determine the toxicity of these inhibitors. Several cell lines (MDA-MB-231, MCF-7 and A549) were incubated and then treated with varying concentrations of the inhibitors for 72 h, respectively. […] These compounds were further evaluated against the control cell line HEK293 to test their toxicity with a non-cancerous cell line.
A549, MDA-MB-231, MCF-7 and HEK293 cells were seeded at 8000-10000 cells (100 μl) in white 96-well plates and pre-incubate the plate for 24 h under standard cell culture conditions, respectively. And then the cells were exposed to the different inhibitors with various concentrations for 72 h. Finally, 10 μl of CCK-8 kit solution was added to each well and incubated for 3-4 hours under standard cell culture conditions, and the 96 well plates were measured the absorbance at 450 nm using Perkin–Elmer Wallac Victor ^3V 1420 multi label plate reader (Perkin–Elmer, Wellesley, USA). EC50s were calculated using GraphPad Prizm statistical package with sigmoidal variable slope dose response curve fit.

Where [1] appears, read: Supplementary Table 4, >100 = not reached at 100 μM.
The mark [2] stands for this setting: Table 6, mean ± SD of triplicates.

Each structure is given as a SMILES string. Read-outs that look alike come from different tables or passages of the source. Some results are limits rather than exact numbers.

As to `COc1cc2nc(NCCNC(=O)CCCCCCC(=O)NO)nc(NC3CCN(C)CC3)c2cc1OC` [Compound 4, N1-(2-((6,7-dimethoxy-4-((1-methylpiperidin-4-yl)amino)quinazolin-2-yl)amino)ethyl)-N8-hydroxyoctanediamide], the half-maximal effective concentration (EC50) in the assay on MCF-7 cells (setting [1]) and with MDA-MB-231 cells (setting [1]) was more than 100 µM throughout. Further, the concentration for half-maximal inhibition (IC50) (as a rule, the point on the concentration scale where inhibition reaches its midpoint) against G9a worked out at 96.7 ± 1.68 µM.
Consider `COc1cc2nc(NCCNC(=O)CCCCCCC(=O)NO)nc(NC3CCN(C(C)C)CC3)c2cc1OC` [Compound 4a, N1-hydroxy-N8-(2-((4-((1-isopropylpiperidin-4-yl)amino)-6,7-dimethoxyquinazolin-2-yl)amino)ethyl)octanediamide], for which the 50% effective concentration (EC50) with MCF-7 cells (setting [1]) and with MDA-MB-231 cells (setting [1]) was more than 100 µM in each case. Further, at G9a, the IC50 was determined as 74.2 ± 1.94 µM.
Consider `COc1cc2nc(NCCNC(=O)CCCCCC(=O)NO)nc(NC3CCN(C(C)C)CC3)c2cc1OC` [Compound 5a, N1-hydroxy-N7-(2-((4-((1-isopropylpiperidin-4-yl)amino)-6,7-dimethoxyquinazolin-2-yl)amino)ethyl)heptanediamide], for which the EC50 in the assay with MCF-7 cells (setting [1]) and with MDA-MB-231 cells (setting [1]) was more than 100 µM each time. This compound gave an IC50 against G9a of 66.6 ± 3.98 µM.
As to `COc1cc2nc(NCCNC(=O)CCCCCC(=O)NO)nc(NC3CCN(Cc4ccccc4)CC3)c2cc1OC` [Compound 5b, N1-(2-((4-((1-benzylpiperidin-4-yl)amino)-6,7-dimethoxyquinazolin-2-yl)amino)ethyl)-N7-hydroxyheptanediamide], the EC50 (as a rule, the concentration giving half of the maximal effect) in the assay with MCF-7 cells (setting [1]) stood at 74.6 ± 1.81 µM; in the assay on MDA-MB-231 cells (setting [1]), 12.3 ± 3.27 µM. The same compound yielded a concentration for half-maximal inhibition (IC50) on G9a of 87.4 ± 5.44 µM.
With `COc1cc2nc(NCCNC(=O)CCCC(=O)NO)nc(NC3CCN(C)CC3)c2cc1OC` [Compound 7, N1-(2-((6,7-dimethoxy-4-((1-methylpiperidin-4-yl)amino)quinazolin-2-yl)amino)ethyl)-N5-hydroxyglutaramide], the 50% effective concentration (EC50) with MCF-7 cells (setting [1]) and with MDA-MB-231 cells (setting [1]) was more than 100 µM throughout. The compound further yielded an IC50 against G9a of 76.7 ± 0.89 µM.
Take `COc1cc2nc(NCCNC(=O)CCCC(=O)NO)nc(NC3CCN(C(C)C)CC3)c2cc1OC` [Compound 7a, N1-hydroxy-N5-(2-((4-((1-isopropylpiperidin-4-yl)amino)-6,7-dimethoxyquinazolin-2-yl)amino)ethyl)glutaramide]: the EC50 with MCF-7 cells (setting [1]) and in the assay on MDA-MB-231 cells (setting [1]) was more than 100 µM each time. In addition, on G9a, half-maximal inhibition (IC50) required 54.6 ± 3.05 µM.
For the compound `COc1ccc2c(NC3CCN(Cc4ccccc4)CC3)nc(NCCNC(=O)CCCCCCC(=O)NO)nc2c1` [Compound 13, N1-(2-((4-((1-benzylpiperidin-4-yl)amino)-7-methoxyquinazolin-2-yl)amino)ethyl)-N8-hydroxyoctanediamide], the EC50 was determined as 79.4 ± 2.72 µM in the assay on MCF-7 cells (setting [2]) and 89.3 ± 1.23 µM in the assay with MDA-MB-231 cells (setting [2]). At G9a, this compound returned an IC50 of 37.8 ± 2.8 µM.
On the same counts, the results for `COc1ccc2c(NC3CCN(Cc4ccccc4)CC3)nc(NCCNC(=O)CCCCCC(=O)NO)nc2c1` [Compound 14, N1-(2-((4-((1-benzylpiperidin-4-yl)amino)-7-methoxyquinazolin-2-yl)amino)ethyl)-N7-hydroxyheptanediamide] are 37.4 ± 2.2 µM, 10 ± 1.66 µM and 7.14 ± 1.62 µM.
Consider `COc1ccc2c(NC3CCN(Cc4ccccc4)CC3)nc(NCCNC(=O)CCCCC(=O)NO)nc2c1` [Compound 15, N1-(2-((4-((1-benzylpiperidin-4-yl)amino)-7-methoxyquinazolin-2-yl)amino)ethyl)-N6-hydroxyadipamide], for which the values for the EC50 in the assay with MCF-7 cells (setting [1]) and in the assay with MDA-MB-231 cells (setting [1]) were more than 100 µM and 95.2 µM, respectively. On G9a, this compound gave an IC50 of 72.1 ± 1.37 µM.
Turning to `COc1ccc2c(NC3CCN(C)CC3)nc(NCCNC(=O)CCCCC(=O)NO)nc2c1` [Compound 15a, N1-hydroxy-N6-(2-((7-methoxy-4-((1-methylpiperidin-4-yl)amino)quinazolin-2-yl)amino)ethyl)adipamide], the 50% effective concentration (EC50) was more than 100 µM in the assay on MCF-7 cells (setting [1]) and 77.6 µM with MDA-MB-231 cells (setting [1]). Moreover, the concentration for half-maximal inhibition (IC50) against G9a came to 47 ± 3.33 µM.
In the case of `COc1ccc2c(NC3CCN(Cc4ccccc4)CC3)nc(NCCNC(=O)CCCC(=O)NO)nc2c1` [Compound 16, N1-(2-((4-((1-benzylpiperidin-4-yl)amino)-7-methoxyquinazolin-2-yl)amino)ethyl)-N5-hydroxyglutaramide], the concentration giving a half-maximal response (EC50) is 57.3 µM in the assay on MCF-7 cells (setting [1]) and 38.1 µM in the assay on MDA-MB-231 cells (setting [1]). Further, the concentration for half-maximal inhibition (IC50) on G9a was 90.3 ± 3.75 µM.
Consider `COc1ccc2c(NC3CCN(C)CC3)nc(NCCNC(=O)CCCC(=O)NO)nc2c1` [Compound 16a, N1-hydroxy-N5-(2-((7-methoxy-4-((1-methylpiperidin-4-yl)amino)quinazolin-2-yl)amino)ethyl)glutaramide], for which the EC50 with MCF-7 cells (setting [1]) was more than 100 µM; with MDA-MB-231 cells (setting [1]), 90.5 µM. The compound also had an IC50 on G9a of 45.7 ± 1.76 µM.
For the compound `COc1cc2nc(N3CCCN(C)CC3)nc(NC3CCN(C(=O)CCCCCCC(=O)NO)CC3)c2cc1OC` [Compound 19, 8-(4-((6,7-dimethoxy-2-(4-methyl-1,4-diazepan-1-yl)quinazolin-4-yl)amino)piperidin-1-yl)-N-hydroxy-8-oxooctanamide], the EC50 in the assay with MCF-7 cells (setting [1]) and in the assay on MDA-MB-231 cells (setting [1]) was more than 100 µM each time. On G9a, this compound yielded an IC50 of 99.6 ± 3.13 µM.
In the case of `COc1cc2nc(N3CCCN(C)CC3)nc(NC3CCN(C(=O)CCCCCC(=O)NO)CC3)c2cc1OC` [Compound 20, 7-(4-((6,7-dimethoxy-2-(4-methyl-1,4-diazepan-1-yl)quinazolin-4-yl)amino)piperidin-1-yl)-N-hydroxy-7-oxoheptanamide], the EC50 in the assay with MCF-7 cells (setting [1]) and in the assay on MDA-MB-231 cells (setting [1]) was more than 100 µM each time. The same compound came in with a half-inhibitory concentration (IC50) on G9a of 97.5 ± 2.78 µM.
`COc1ccc2c(NCCNC(=O)CCCCCC(=O)NO)nc(N3CCCN(C)CC3)nc2c1` [Compound 22, N1-hydroxy-N7-(2-((7-methoxy-2-(4-methyl-1,4-diazepan-1-yl)quinazolin-4-yl)amino)ethyl)heptanediamide]: the EC50 in the assay on MCF-7 cells (setting [1]) and with MDA-MB-231 cells (setting [1]) was more than 100 µM throughout. Moreover, on G9a, half-maximal inhibition (IC50) required 60.6 ± 3.66 µM.

These data come from article PMC5609913, “Structure based design, synthesis and activity studies of small hybrid molecules as HDAC and G9a dual inhibitors” (Oncotarget, 2017).
